Values of other authors as cited in paper PMC5548178 (Pharmacotherapy, 2016).
Read-outs that look alike come from different tables or passages of the source.

Key:
[1] = reported variability in healthy volunteers
[2] = single-dose gemfibrozil 600 mg after 2 weeks of lopinavir 400 mg–ritonavir 100 mg twice daily; healthy volunteers

Substrate for the efflux transporter P-glycoprotein (P-glycoprotein (P-gp)) | AUC (mean ± SD) [1] | Reduction in gemfibrozil exposure (AUC0-∞) [2] | SMILES | Mean change in triglyceride levels (triglyceride levels; HIV-infected patients receiving NNRTI-based cART) | Mean change in triglyceride levels (triglyceride levels; non–HIV-infected controls)
not a substrate | 92000 ± 26000 ng·h/mL | – | CC(C)(Oc1ccc(C(=O)c2ccc(Cl)cc2)cc1)C(=O)O [fenofibric acid] | – | –
– | – | 41% | Cc1ccc(C)c(OCCCC(C)(C)C(=O)O)c1 [gemfibrozil] | –60.3% | –59.3%
